Patent EP2767286B1, “ORAL PHARMACEUTICAL COMPOSITION FOR THE TREATMENT OF INFLAMMATORY GASTROINTESTINAL DISEASES” (Obshestvo S Ogranichennoj Otvetstvennostju "CytoNIR", priority 2011, dated 2018)
Marks after values point to notes of the source that are not given here. Ends that are not written are not given here.

Key:
[1] = test system: nicht durch Heliobacter pylori assoziierte Magengeschwüren; settings: peroral, in complex therapy; cited from earlier work
[2] = test system: chronischen Duodenalulkus durch Heliobacter pylori; settings: peroral, in complex therapy; cited from earlier work
[3] = test system: Versuchsmodell der toxischen Hepatitis; experiment: Hepatoprotective activity in the experimental model of toxic hepatitis (TCM); format: in vivo, Ratten der Linie Sprague-Dawley; settings: 100 mg/kg, blood; for APh: alkalische Phosphatase
Description: Beispiel 2 Bewertung der hepatoprotektiven Aktivität der erfindungsgemäßen pharmazeutischen Zubereitung bei Verabreichung am Versuchsmodell der toxischen Hepatitis.
Jede Versuchsgruppe zählte 10 Tiere. Die zu untersuchenden Präparate wurden den Ratten in Form von Wasserlösung intragastrisch mit einer atraumatischen Metallsonde eingeführt. Die Referenztiere bekamen Reinwasser verabreicht.
Als Vergleichspräparat wurde bei der Untersuchung der hepatoprotektiven Aktivität das Präparat Silibinin in Kapseln, Fabrikat Rosa-Phytopharm (Bulgarien) verwendet. in der gleichen Menge wie das Volumen der hepatoprotektiven Mittel behandelt. Die hepatoprotektive Aktivität wurde 7 und 14 Tage ab Anfang der Behandlung bewertet. Im Blutserum wurden die Aktivität von Aspartat-Amino-transferase (ASAT), Alanin-Aminotransferase (ALT), alkalische Phosphatase sowie der Cholesterinspiegel, Triglyzeridespiegel ermittelt. […]
Die statistische Datenverarbeitung wurde anhand der handelsüblichen Software Microsoft Excel durchgeführt. Die Unterschiede zwischen den Stichproben wurden anhand des Student t-Tests bewertet. […] Die Angaben sind in der Tabelle 3 aufgeführt. Tabelle 3. […] Tag […]

[4] = test system: Modell des Indometacin-Magengeschwürs; experiment: Gastroprotective activity in the indometacin gastric ulcer model; format: in vivo, Ratten der Linie Sprague-Dawley
Description: Beispiel 1 Gastroprotektive Aktivität der erfindungsgemäßen pharmazeutischen Zubereitung bei Verabreichung am Modell einer Geschwürbildung.
Die experimentelle Forschung wurde an 50 männlichen Auszucht-Ratten der Linie Sprague-Dawley mit einem Körpergewicht von 180 - 200 g durchgeführt. Vor den Versuchen wurden die Tiere einer 14 Tage langen Quarantäne und Randomisierung unterzogen. Die Tiere wurden unter Vivarium-Bedingungen mit genormter Nahrungsration unterhalten.
Die Tiere wurden in folgende Gruppen aufgeteilt: • Ratten, die mit einem ulzerogenen Präparat (Indometacin) und Kochsalzlösung (2 ml/kg) behandelt wurden; diese Tiere bilden die Vergleichsgruppe (Referenzgruppe); • Ratten, die mit einem ulzerogenen Präparat intragastrisch und einem Vergleichspräparat (Sucralfate in der Dosis von 200,0 mg/kg) behandelt wurden; • Ratten, die mit einem ulzerogenen Präparat intragastrisch und mit der pharmazeutischen Zubereitung (10,0 µg/kg) behandelt wurden; • Ratten, die mit einem ulzerogenen Präparat intragastrisch und mit der pharmazeutischen Zubereitung (0,1 µg/kg) behandelt wurden. physiologischen Lösung verabreicht. Die pharmazeutische Zubereitung und das Vergleichspräparat in den oben genannten Mengen wurden im Laufe von 7 Tagen ab dem Zeitpunkt der Simulation des Indometacin-Magengeschwürs (Heilschema) intragastrisch verabreicht. Die Tiere der Referenzgruppe wurden mit Äquivolumen-Mengen des Lösemittels unter entsprechenden Regimes behandelt.
Das Körpergewicht der Tiere wurde im Zeitablauf ermittelt. 24 Stunden nach Abschluss dieser Behandlung wurden die Tiere der Euthanasie mittels prompter Dekapitation unter Blutabnahme unterzogen. Die Mägen wurden entnommen, an der Minorseite aufgeschnitten und mit kalter Kochsalzlösung gewaschen. Die Destruktionszahl wurde makroskopisch mit Hilfe von einem Binokular unter heller Vertikalbeleuchtung ermittelt. Die Destruktionen wurden je nach ihrem Flächeninhalt wie folgt differenziert: Fein (punktförmig, Größe von unter 1 mm), mittelmäßig (rund und streifenförmig, ab 1 mm) und groß (über 1- 2 mm). Das Vorhandensein von Blut an der Destruktionsunterkante wurde anhand der Peroxydase-Reaktion mit Orthodianisidin-Substrat unter Kennfärben der Schleimhaut mit Methylenblau erkannt. Dabei wurde die hämhaltige Oberfläche braun-schwarz im bläulichen Hintergrund der intakten Schleimhaut gefärbt.
Die Verteilung der Tiere in der Gruppe mit Schleimhautfehlern wurde je nach Grad der Ausprägung der makroskopischen Änderungen erfasst. Der Paul's Index (PI) wurde wie folgt berechnet: durchschnittliche Geschwürmenge x % der Tiere mit Geschwüren / 100 %. Die gastroprotektive Aktivität (GA) wurde als PI / PI Verhältnis zwischen der Referenzgruppe und einer Versuchsgruppe berechnet. Das zu untersuchende Präparat wurde als aktiv beurteilt, wenn GA 2 und mehr betrug.
Die statistische Datenverarbeitung wurde anhand der handelsüblichen Software Microsoft Excel durchgeführt. Die Relevanz der Änderungen wurde unter Anwendung des Student t-Tests berechnet.

TEKRRETVEREKE [Gepon, synthetischer Peptid-Immunmodulator]
Regeneration, Vernarbungszeit, zellgebundene Immunität [1]: Beschleunigung der Regenerationsvorgänge, zur Abkürzung der Vernarbungszeit des ulzerösen Defekts und zur Verbesserung der Kenndaten der zellgebundenen Immunität

N-Acetyl- Glukosaminyl- 1 -4-N-Acetylmuramid- L-Alanyl- D-Isoglutamin [Licopid]
Eradikation von Heliobacter pylori und Wiederherstellung der Magenschleimhaut [2]: hohe Effizienz hinsichtlich der Eradikation von Heliobacter pylori

COc1cc(C2Oc3cc([C@H]4Oc5cc(O)cc(O)c5C(=O)[C@@H]4O)ccc3OC2CO)ccc1O (some centres unmarked) [Silibinin]
APh ([3]; 7. Behandlungstag): 469±30 nMol/s x L
ALAT ([3]; 7. Behandlungstag): 1,56±0,12 mMol/Einheiten x L
ASAT ([3]; 7. Behandlungstag): 1,28±0,15 mMol/Einheiten x L
Cholesterin ([3]; 7. Behandlungstag): 3,60±0,18 mMol/ L
Triglyzeride ([3]; 7. Behandlungstag): 2,44±0,12 mMol/ L
APh ([3]; 14. Behandlungstag): 288±17 nMol/s x L
ALAT ([3]; 14. Behandlungstag): 0,99±0,16 mMol/Einheiten x L
ASAT ([3]; 14. Behandlungstag): 0,75±0,11 mMol/Einheiten x L
Cholesterin ([3]; 14. Behandlungstag): 1,99±0,12 mMol/ L
Triglyzeride ([3]; 14. Behandlungstag): 1,48±0,14 mMol/ L

Sucralfate
Anzahl der Geschwüre (X ± m) Fein ([4]; 200 mg/kg intragastric, 7 days): 8±2
Anzahl der Geschwüre (X ± m) Groß ([4]; 200 mg/kg intragastric, 7 days): 5±2
Anzahl der Geschwüre (X ± m) Mittelmäßig ([4]; 200 mg/kg intragastric, 7 days): 4±1
Tiere mit Geschwüren ([4]; 200 mg/kg intragastric, 7 days): 100%
PI ([4]; 200 mg/kg intragastric, 7 days, Paul's Index): 16,9*
GA ([4]; 200 mg/kg intragastric, 7 days, gastroprotektive Aktivität, PI reference / PI test group, active if 2 or more): 2,05
Durchschnitt (X±m) ([4]; 200 mg/kg intragastric, 7 days, mean number of ulcers): 17±4
Körpergewichtsverlauf (M±m) ([4]; 200 mg/kg intragastric, 3 Tage): 186 ± 4 g
Körpergewichtsverlauf (M±m) ([4]; 200 mg/kg intragastric, 7 Tage): 169 ± 3 g
Körpergewichtsverlauf (M±m) ([4]; 200 mg/kg intragastric, Hintergrund (baseline)): 198 ± 3 g
Hyperämie der Schleimhaut, Anteil der Tiere ([4]; Sucralfate 200 mg/kg): 40%
